Source: publication PMC6458850, “CXXC5 mediates growth plate senescence and is a target for enhancement of longitudinal bone growth” (Life Science Alliance, 2019)

Legend:
tibiae (E15.5) = experiment: Tibial organ culture (ex vivo); design: species or system mouse; details: 100 nM, 6 d
Procedure: Figure 2. The effects of estrogen on CXXC5 expression and the mediation of growth plate senescence. (A) Immunoblotting (upper) and quantitative analyses (mean ± SEM, n = 3) (lower) in C28/I2 cells treated with 100 nM E2 (17β-estradiol) for 0, 1, 3, 6, 24, 48, or 72 h. (B) Immunocytochemical staining (left) and quantitative analyses of the fluorescent intensity (mean ± SEM, n = 3; t test, **P < 0.005 and ***P < 0.0005) (right) in C28/I2 cells treated with 100 nM E2 for 40 h. Scale bars, 100 μm. (C–E) Tibial organ cultures (E15.5) incubated with 100 nM E2 for 6 d. Representative images at 6 d (C, left) and quantitative analyses of the growth changes (mean ± SEM, n = 5; t test, ***P < 0.0005) (C, right). Scale bar, 1 mm. H&E staining (D, left) and quantification of each zone height (mean ± SEM, n = 5; t test, *P < 0.05 and **P < 0.005) (D, right) in the growth plate. Scale bar, 200 μm. IHC analyses of β-catenin and CXXC5 (E). Scale bars, 50 μm. (F) 3-wk-old Cxxc5^+/+ and Cxxc5^−/− mice were treated with E2 cypionate (70 μg/kg) by i.m. injection once a week for 3 wk (n = 3–4). Representative images of H&E staining and IHC analyses for BrdU, β-catenin, and CXXC5 in the growth plates of proximal tibiae are shown. […] Tibial length was measured before treatment and after 6 d in culture. The samples were then prepared for paraffin embedding, sectioned, and analyzed by H&E and IHC staining.

Various cells = experiment: Cytotoxicity test (WST-1 cell viability); format: cell-based; details: 0.01-100 μM, 24 hours
Procedure: intravenous; IP, intraperitoneal; Tmax, Time to maximum plasm concentration; Cmax, Maximum plasma concentration after intraperitoneal injection; AUC, Area under the curve; CL, clearance; Vss, Volume of distribution at steady state; T1/2, Elimination half-life; F, […]
Table R2. Cytotoxicity test for KY19382 […]
viability was measured using WST-1. The IC50 value was determined from the dose-response […]
This manuscript addresses the role of CXXC5, a negative regulator of Wnt/beta-Catenin signaling, on growth plate senescence and associated longitudinal bone growth.
Authors used a peptide PTD-DBMP, and a small molecule KY19382, which interferes with GSK-3b activity and CXXC5-DVL interaction. Such interference activates Wnt/beta-catenin signaling that delays growth plate senescence, resulting in longitudinal bone growth in mice; thereby proposing CXXC5 as a potential target to enhance longitudinal growth of children at the risk of height retardation. This is a well
(1 picture or pasted object on this page, not shown here)

CXXC5–DVL interaction = biological target: T1, CXXC5–DVL interaction (Homo sapiens, UniProt O14640); experiment: In vitro CXXC5–DVL binding assay (FITC-tagged PTD-DBMP on DVL PDZ domain); details: dose–response curve, n = 3
T1 sequence (O14640 251-340 limits assumed): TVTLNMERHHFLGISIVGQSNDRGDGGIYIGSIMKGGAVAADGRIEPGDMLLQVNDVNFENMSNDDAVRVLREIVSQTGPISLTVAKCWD
Procedure: After the addition of 10 μM FITC-tagged PTD-DBMP to each well, each compound in the chemical library or control (DMSO) was treated to the well at a final concentration of 30 μM. The fluorescence intensity was measured using a Fluorstar Optima microplate reader (BGM Lab Technologies, Ortenberg, Germany). The binding values were calculated as a percent ratio of the fluorescent intensity normalized to the DMSO-treated control.

| IC50 (CXXC5–DVL interaction) | SMILES | tibial length in ex vivo tibial culture (tibiae (E15.5)) | cytotoxicity in variety of cell types (Various cells) |
| --- | --- | --- | --- |
|  | C[C@]12CC[C@@H]3c4ccc(O)cc4CC[C@H]3[C@@H]1CC[C@@H]2O [E2, 17β-estradiol] | reduced tibial length |  |
| 19 nM | CON=C1C(=C2C(=O)Nc3cc(Cl)c(Cl)cc32)Nc2ccccc21 [KY19382, 5,6-dichloroindirubin-3′-methoxime] |  | does not induce cytotoxicity |
